From patent US9289412B2, “Role of limonoid compounds as neuroprotective agents” (The Johns Hopkins University, priority 2006, dated 2016)
Where two headings read alike, the source gives them in different places.

What was measured:
[1] = test system: mixed hippocampal cell cultures (6-OHDA neurotoxicity); experiment: 6-OHDA neurotoxicity, MTT viability, mixed hippocampal cultures; assay type: cell-based, rat; details: 6-OHDA 100 μM
Experimental: (§1) FIG. 8 is a set of bar graphs showing the results of an MTT viability assay of mixed hippocampal cell cultures in which the effect of (A) NMDA (100 μM) or (B) 6-OHDA (100 μM) is tested alone or in the presence of a range of concentrations of Limonin (0.1-10 μM).
(§2) We also tested the ability of Limonin to protect against N-methyl-D-Aspartic Acid (NMDA) excitotoxicity, and 6-Hydroxydopamine (6-0HDA), a dopaminergic neurotoxin.

[2] = test system: mixed hippocampal cell cultures (NMDA excitotoxicity); experiment: NMDA excitotoxicity, MTT viability, mixed hippocampal cultures; assay type: cell-based, rat; details: NMDA 100 μM
Experimental: as §1, §2

[3] = test system: hippocampal cultures (HIV-1 Tat toxicity); experiment: HIV-1 Tat toxicity assay, MTT viability, mixed hippocampal cultures; assay type: cell-based, rat; details: Tat 500 nM; for dose dependence of protection from HIV-1 Tat toxicity (FIG. 7): range of concentrations up to 10 μM; for protection from HIV-1 Tat toxicity, in words (FIG. 4B): 1 h preincubation, GPI 1046 10 μM, Resveratrol 10 μM
Excerpt: (§3) We sought to evaluate the protective efficacy of a number of modified terpenoid compounds against the against many different neurotoxins, ranging from the chemotoxic 6-OHDA, NMDA, 3-nitropropionic acid (3-NP), and viral proteins such as Tat and gp120. Thus, we established an in vitro neuroprotection assay using rat mixed hippocampal cultures, in which we evaluated the protective efficacy of neuroprotective compounds disclosed herein. The oxidative stressor 3-NP was used to elicit toxicity in the rat hippocampal cultures to mimic the oxidative damage, reactive oxygen species production and ensuing neurodegeneration resulting from HIV infection. Another measure of neurotoxicity which results from HIV infection was evaluated by exposure of the hippocampal cultures to HIV-1 Tat (Li et al (2005), Neurotox Res, 8(1-2): 119-134).
(§4) Rat mixed hippocamal neuronal cultures were generated from freshly dissected rat hippocampi (embryonic day 18) in neurobasal media containing 5% fetal bovine serum and 2% B27 supplement. The cells were plated into 96 well plates at a density of 4×10^5 cells/mL and routinely used on days 11-14 following culturing. Cell viability was assessed with MTT [3-(4,5-dimethylthiazol-2-yl)-2,5-diphenyltetrazolium bromide] assay. The MTT assay is based on the ability of a mitochondrial dehydrogenase enzyme from viable cells to cleave the tetrazolium rings of the pale yellow MTT and form dark blue formazan crystals. See Mosmann (1983), J Immunol Methods, 65(1-2):55-63. These crystals are largely impermeable to cell membranes, and thus accumulate within healthy cells. The resultant formazan precipitates are solubilized with DMSO and read on a multiwell scanning spectrophotometer (ELISA reader). The number of surviving cells is directly proportional to the level of the formazan product created.
(§5) Cultures were preincubated with GPI 1046 or Resveratrol for one hour prior to an 18 hour exposure to 3 mM 3-NP. […] The same neuroprotective compounds were evaluated for efficacy against HIV-1 Tat protein toxicity using the same 1 hour preincubation protocol.

[4] = test system: human fetal neuronal cultures; experiment: 3-NP toxicity, MTT viability, human fetal neuron cultures; assay type: cell-based; details: 3-NP 3 mM; Limonin 0.1-10 μM
Experimental: (§6) FIG. 9 is a set of bar graphs showing the results of an MTT viability assay of human fetal neuron cultures in which the effect of (A) 3-NP (3 mM) or (B) 6-OHDA (100 μM) is tested alone or in the presence of a range of concentrations of Limonin (0.1-10 μM).
(§7) Finally, we sought to determine if the compounds tested in rat neuronal cultures would also be effective on cultured human fetal neurons.

[5] = test system: human fetal neuronal cultures; experiment: 6-OHDA toxicity, MTT viability, human fetal neuron cultures; assay type: cell-based; details: 6-OHDA 100 μM; Limonin 0.1-10 μM
Experimental: as §6, §7

[6] = test system: rat mixed hippocampal cultures; experiment: 3-NP neurotoxicity assay, MTT viability, rat mixed hippocampal cultures; assay type: cell-based; details: for protection from oxidative damage elicited by 3-NP, in words (FIG. 4A) / inhibition at 10 µM / % Protection: 1 h preincubation; for protection from oxidative damage elicited by 3-NP, in words (FIG. 4A): GPI 1046 1 μM, Resveratrol 25 μM; for inhibition at 10 µM: Rattus norvegicus; for inhibition at 10 µM / % Protection: test concentration (10 μM)
Experimental: For example, a cell viability assay can be used in a preliminary screen on a large series of compounds each of which is tested at a fixed concentration. In some embodiments, mixed hippocampal cell cultures are prepared as described in, e.g., Haughey et al. (1999), J Neurochem, 73(4):1363-1374, and Haughey et al (2004), J Neurosci, 24(1):257-268. Subsequently, the cultures are pretreated for one hour in the presence of a candidate neuroprotective agent and then incubated with a cytotoxic agent for about 18 hours. Examples of cytotoxic agents include, but are not limited to, oxidative stressors (e.g., 3-nitropropionic acid (3-NP) or H2O2), excitatory amino acids (e.g., kainate), or neurotoxic proteins (e.g., Hiv Tat, or Aβ peptides). […] The level of protection (“percent protection”) provided by the test compound at a given test concentration in vitro can be expressed as: […]
A variety of methods for determining cell viability may be used. In some embodiments, cell viability is assessed based on the “MTT” assay method described in Mosmann (1983), J Immunol Methods, 65(1-2):55-63, or a variant thereof. This assay is based on the ability of a mitochondrial dehydrogenase enzyme from viable cells to cleave the tetrazolium rings of the pale yellow MTT and form dark blue formazan crystals, which are trapped in cells and readily quantified by ELISA spectrophotometry.
as §3, §4
Mixed hippocampal cultures were incubated with 3-NP (0.5-10 mM) for 18 hours and then assessed for viability using an MTT assay.
as §5

[7] = test system: rat mixed hippocampal cultures; experiment: Titration of 3-NP for neurotoxic effects, MTT viability; assay type: cell-based; details: 3 mM 3-NP, 18 hours
Experimental: FIG. 3 is a bar graph showing the effect of a series of 3-nitropropionic acid (3-NP) concentrations (0.5-10 mM) on survival of mixed hippocampal cell cultures in a [3-(4,5-dimethylthiazol-2-yl)-2,5-diphenyl tetrazolium bromide] (MTT) viability assay. Absorbance at 595 nm (corresponding to the absorbance of the reduced MTT formazan product) is directly proportional to cell viability.

[8] = Table 2, vs 3 mM 3-NP 18 h, read-out: % Protection
[9] = Table 3, 3 mM 3-NP 18 h, read-out: % Protection vs 3-NP

CC1(C)O[C@H]2CC(=O)OC[C@]23[C@H]2CC[C@@]4(C)[C@H](c5ccoc5)OC(=O)[C@H]5O[C@]54[C@]2(C)C(=O)C[C@@H]13 [Limonin]
protection against 6-OHDA at highest dose ([1]; Limonin 10 μM): complete protection
dose dependence of block of 6-OHDA neurotoxicity (FIG. 8B) ([1]; Limonin 0.1-10 μM): dose-dependently blocked the neurotoxicity
protection against NMDA at highest dose ([2]; Limonin 10 μM): complete protection
dose dependence of block of NMDA neurotoxicity (FIG. 8A) ([2]; Limonin 0.1-10 μM): dose-dependently blocked the neurotoxicity
dose dependence of protection from HIV-1 Tat toxicity (FIG. 7) [3]: dose dependently protected
protection of human fetal neuronal cultures against 3-NP (FIG. 9A) [4]: dose-dependently protected
protection of human fetal neuronal cultures against 6-OHDA (FIG. 9B) [5]: dose-dependently protected

Oc1ccc(C=Cc2cc(O)cc(O)c2)cc1 [Resveratrol, reference compound]
protection from HIV-1 Tat toxicity, in words (FIG. 4B) [3]: protected hippocampal neurons from Tat toxicity
protection from oxidative damage elicited by 3-NP, in words (FIG. 4A) ([6]; 3 mM 3-NP 18 h): significantly protected

O=C(O)CC[N+](=O)[O-] [Compound 3-NP, 3-nitropropionic acid]
cytotoxicity induced [7]: 25-35%

CC(=O)O[C@@H]1CC2C(C)(C)C(=O)C=C[C@]2(C)C2CC[C@@]3(C)[C@H](c4ccoc4)OC(=O)[C@H]4O[C@]43[C@@]21C (stereo partly drawn) [GEDUNIN]
neuroprotection from HIV-1 Tat toxicity, in words ([3]; 1-10 μM compound): nearly complete neuroprotection
dose dependence of protection from HIV-1 Tat toxicity (FIG. 7) [3]: dose dependently protected
protection against 3-NP (FIG. 5) ([6]; 3 mM 3-NP, approximate values): about 50%
inhibition at 10 µM [6, 8]: 40%

COC(=O)C[C@H]1C2(C)CC34OC5(C)O[C@@]6([C@H](OC(C)=O)C(OC(C)=O)[C@]7(C)C(/C(=C(/O)C(C)C)C(=O)O[C@H]7c7ccoc7)[C@@]6(O5)[C@H](OC(C)=O)[C@@]3(O)C2OC(=O)C(C)C)[C@]14C (stereo partly drawn) [BUSSEIN]
inhibition at 10 µM [6, 9]: 18%

CC1(C)C(=O)[C@@H]2O[C@@H]2[C@@]2(C)C1C[C@@H](O)[C@]1(C)C2CC[C@@]2(C)[C@H](c3ccoc3)OC(=O)C3OC321 (stereo partly drawn) [1,2alpha- EPOXYDEACET[…], 1,2alpha-EPOXYDEACETOXYDIHYDROGEDUNIN]
% Protection ([6]; Table 2, vs 3 mM 3-NP 18 h): 25%

CC(=O)O[C@H]1C[C@@H](OC(C)=O)C(C)(C)C2CC(=O)[C@]3(C)C(CC[C@@]4(C)[C@H](c5ccoc5)OC(=O)[C@H]5O[C@]543)[C@]21C (stereo partly drawn) [7-DEACETOXY-7- OXOKHIVORIN, 7-DEACETOXY-7-OXOKHIVORIN]
inhibition at 10 µM [6, 8]: 36%
inhibition at 10 µM [6, 9]: 36%

CCC(C)(C)C(=O)C(=O)N1CCC[C@H]1C(=O)OCCCc1cccnc1 [GPI 1046, reference compound]
protection from HIV-1 Tat toxicity, in words (FIG. 4B) [3]: protected hippocampal neurons from Tat toxicity
protection from oxidative damage elicited by 3-NP, in words (FIG. 4A) ([6]; 3 mM 3-NP 18 h): significantly protected

COC(=O)[C@@H]1OC(=O)C2OC23[C@@]1(C)CCC1[C@]2(C)C(CC(=O)[C@]13C)C(C)(C)[C@H](OC(C)=O)C[C@@H]2OC(C)=O (stereo partly drawn) [7-DEACETOXY-7-OXOKHIVORINIC ACID, METHYL ESTER]
% Protection ([6]; Table 2, vs 3 mM 3-NP 18 h): 42%

COC(=O)[C@@H]1OC(=O)C2OC23[C@@]1(C)CCC1[C@]2(C)C(C[C@H](O)[C@]13C)C(C)(C)[C@H](OC(C)=O)C[C@@H]2OC(C)=O (stereo partly drawn) [7beta-HYDROXY-7-DESACETOXYKHIVORINIC ACID, METHYL ESTER]
% Protection ([6]; Table 2, vs 3 mM 3-NP 18 h): 84%

CC(=O)O[C@@H]1CC2C(C)(C)C(=O)C=C[C@]2(C)C2CC[C@@]3(C)C(=CC(=O)O[C@@H]3c3ccoc3)[C@@]21C (stereo partly drawn) [DEOXYGEDUNIN]
inhibition at 10 µM [6, 9]: 23%
% Protection ([6]; Table 2, vs 3 mM 3-NP 18 h): 23%
